Experiments:
5-lipoxygenase = biological target: T1, 5-lipoxygenase (Homo sapiens, UniProt P09917); assay: Inhibition of LTB4 synthesis in human PMN leucocytes (A 23 187 stimulated); type: cell-based; conditions: for inhibition at 1 µg/mL: 1 μg/ml; for inhibition at 0.5 µg/mL: 0.5 μg/ml; for inhibition at 5 µg/mL: 5 μg/ml; for inhibition at 0.1 µg/mL: 0.1 μg/ml
T1 construct: The human polymorphonuclear leucocytes metabolize the arachidonic acid to give 5-hydroxy-5,8,11,14-eicosatetraenoic acid (5-HETE) and leucotriene B4; endogenous in cells; host or cells: human PMN leucocytes from heparinized whole blood
T1 sequence (P09917 1-674): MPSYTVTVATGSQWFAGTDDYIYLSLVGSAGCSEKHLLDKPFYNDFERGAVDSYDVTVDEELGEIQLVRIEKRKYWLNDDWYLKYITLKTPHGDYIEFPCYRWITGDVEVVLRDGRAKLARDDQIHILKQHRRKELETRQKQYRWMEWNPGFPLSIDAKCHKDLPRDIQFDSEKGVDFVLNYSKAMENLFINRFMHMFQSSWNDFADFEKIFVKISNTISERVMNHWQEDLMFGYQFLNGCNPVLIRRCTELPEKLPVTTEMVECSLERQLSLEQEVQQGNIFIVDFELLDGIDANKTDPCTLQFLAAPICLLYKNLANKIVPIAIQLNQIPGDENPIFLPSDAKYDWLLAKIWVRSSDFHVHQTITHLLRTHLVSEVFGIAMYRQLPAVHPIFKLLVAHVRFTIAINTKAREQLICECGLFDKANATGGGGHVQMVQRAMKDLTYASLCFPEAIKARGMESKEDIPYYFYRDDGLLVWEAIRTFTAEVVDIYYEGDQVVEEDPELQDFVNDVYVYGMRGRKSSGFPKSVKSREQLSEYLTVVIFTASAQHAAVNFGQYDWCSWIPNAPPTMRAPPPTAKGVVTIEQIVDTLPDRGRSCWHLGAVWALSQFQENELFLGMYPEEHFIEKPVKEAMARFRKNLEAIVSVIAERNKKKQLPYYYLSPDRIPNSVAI
Description: The 5-lipoxygenase responsible for the biosynthesis of the leucotrienes B4, C4 and D4 is inhibited selectively at low concentrations. […] Inhibition of the liberation of 5-HETE and leucotriene B4 from the leucocytes constitutes a measure of the lipoxygenase-inhibiting effect of the compounds according to the invention (see Table 1). The test with the human leucocytes was carried out in accordance with Borgeat and Samuelsson (J. Biol. Chem. 254, 2643, 1979, and Proc. Natl. Acad. Sci. USA, 76, 2148, 1979). The human PMN leucocytes (>95%) used in the present example were obtained from heparinized whole blood by dextran sedimentation and subsequent density gradient separation (Ficoll-Paque) (see A. Boyum, Scand. J. Immunol., 5, Suppl. 5, 9, 1976). 2×10^7 cells/ml were suspended in Ca^2+ -containing Dulbecco phosphate buffer and stimulated in the presence and absence of lipoxygenase inhibitors, with the calcium ionophore A 23 187. After 15 minutes, the lipoxygenase products were extracted from the acidified incubation medium and separated by means of HPLC.

leucocyte stickiness = assay: Stickiness of leucocytes in hamster cheek pouch; type: in vivo, Male Syrian golden hamsters; conditions: Effect after administration of 1 mg/kg i.a.
Source text: The reduction in the leucocyte stickiness is also responsible for the decrease in ischaemic areas since, after treatment with the compounds to be used according to the invention, the leucocytes pass through the microcirculatory region of these areas without reducing the supply to the corresponding tissue by totally or temporarily closing small vessels or capillaries.
The number of leucocytes which pass through a certain section of a vessel serves as a simple model for measuring the stickiness of leucocytes (Bray, M. A. et al., Prostaglandins, 22, 213, 1981). The less sticky these cells are, the greater is the number of leucocytes counted.
Male Syrian golden hamsters (80-100 g) were anaesthetized with nembutal (i.p.; 60 mg/kg). After fixing a PE 10 catheter in the A.femoralis, the animal is laid on a Duling dissection stage (MVR 5, 423, 1973) and the right cheek pouch is drawn out by inserting a Q-tip. It is carefully drawn into that part of the stage which is intended for this purpose, and is stretched out and fixed. From the beginning of the preparation procedure, the prepared cheek pouch is rinsed over with 5 ml/minute of superfusate. The temperature of the solution is 36° C. While protecting the vessels, the upper layer of tissue is cut longitudinally and folded to the side. Under about 200 times magnification, an area of about 1 cm^2 of connective tissue is carefully exposed. The animal, together with the dissection stage, is placed on the microscope stage. A thermocouple is inserted into the left cheek pouch. The body temperature of the animal is monitored in this manner and maintained within +0.3° C. with the aid of an IR lamp (240 watt).
Measurement of the leucocyte stickiness is carried out under a magnification of about 500 times. A small vein (30-40 μm .phi.) is selected in the exposed area. Over a certain section of this vessel, the number of leucocytes passing by per unit time (min.) is counted.

cyclooxygenase = conditions: known lipoxygenase inhibitors; cited from earlier work
[1] = administered systemically (for example orally); cited from earlier work
myocardial infarct = assay: Myocardial infarct after acute ligature of a coronary artery; type: in vivo; conditions: dog
Description: The actions of various pyrazoledione derivatives on the experimental myocardial infarct in the dog were investigated after acute ligature of a coronary artery. In pentobarbital-anaesthetised dogs, the proximal left anterior descending coronary artery (LAD) […] occluded for 6 hours. The artery was not reperfused. One hour prior to ligature, the test compounds in 1% tyclose suspension were administered intraduodenally as a bolus. The same procedure was adopted for the controls, except that no active compound was administered. The size of the infarct and the area of perfusion of the LAD were determined biochemically by means of a dual perfusion method using Evans Blue and triphenyltetrazolium chloride. […] This could be observed both with respect to the absolute infarct weight and the infarct size relative to the weight of the left ventricule. Initially, the blood pressure decreased as a result of the coronary ligature, and this led to a reflectory increase in the heart rate.

SMILES | inhibition at 1 µg/mL (5-lipoxygenase) [%] | Inhibition of leucocyte stickiness (leucocyte stickiness) | inhibition at 0.5 µg/mL (5-lipoxygenase) [%] | inhibition at 5 µg/mL (5-lipoxygenase) [%] | inhibition at 0.1 µg/mL (5-lipoxygenase) [%] | cyclooxygenase inhibition (cyclooxygenase) | toxic side effects [1] | haemodynamic effects (myocardial infarct; LAD ligature, intraduodenal) | infarct size (myocardial infarct; gradual LAD occlusion 6 hours, intraduodenal bolus one hour prior to ligature, absolute infarct weight and relative to left ventricle weight)
CC(C)(C)C1=NN(CCOc2ccccc2)C(=O)C1=O [Example 2] | 12 | inhibition |  |  |  |  |  |  | 
CCCC1=NN(CCOc2ccc3ccccc3c2)C(=O)C1=O [Example 10] | 56 | inhibition | 12 | 100 |  |  |  |  | 
CC1=NN(CCOc2ccccc2)C(=O)C1=O [Example 6] | 88 | no effect | 60 | 100 | 38 |  |  |  | 
COCC1=NN(CCOc2ccc3ccccc3c2)C(=O)C1=O [Example 4] | 60 | inhibition | 47 | 100 | 15 |  |  |  | 
CC1=NN(C(C)C2CCCCC2)C(=O)C1=O (stereo not drawn) [Example 11] | 29 | inhibition |  | 32 |  |  |  |  | 
CCCCCC=CCC=CCC=CCC=CCCCC(=O)O [5,8,11,14-eicosatetraenoic acid] |  |  |  |  |  | act as cyclooxygenase inhibitors either simultaneously or only at very high concentrations |  |  | 
CC1=NN(C(C)c2ccc3c(c2)CCCC3)C(=O)C1=O (stereo not drawn) [Example 7] | 21 | inhibition | 10 | 100 |  |  |  |  | 
CC(Cc1ccc(O)c(O)c1)C(C)Cc1ccc(O)c(O)c1 (stereo not drawn) [nordihydroguaretic acid] |  |  |  |  |  | act as cyclooxygenase inhibitors either simultaneously or only at very high concentrations |  |  | 
NC1=NN(c2cccc(C(F)(F)F)c2)CC1 [3-amino-1-(3-trifluoromethylphenyl)-2-pyrazoline] |  |  |  |  |  | act as cyclooxygenase inhibitors either simultaneously or only at very high concentrations | toxic side effects |  | 
CC1=NN(C(C)c2cccc(C(F)(F)F)c2)C(=O)C1=O (stereo not drawn) [Example 9] | 40 | no effect |  | 73 |  |  |  |  | 
CC1=NN(C(C)c2ccc(Cl)c(Cl)c2)C(=O)C1=O (stereo not drawn) [Example 5] | 29 | no action | 12 | 84 |  |  |  |  | 
CC1=NN(CCOc2ccc3ccccc3c2)C(=O)C1=O [Example 1, 3-Methyl-1-[2-(2-naphthyloxy)-ethyl]-2-pyrazole-4,5-dione] | 85 | inhibition | 60 | 100 | 29 |  |  |  | 
C1=CSc2ccccc2N1 [4H-1,4-benzothiazine] |  |  |  |  |  |  |  | no haemodynamic effects | substantially reduced the infarct size
O=C1CCN(c2ccccc2)N1 [phenidone] |  |  |  |  |  | act as cyclooxygenase inhibitors either simultaneously or only at very high concentrations |  |  | 
O=C1C(=O)N(CCOc2ccc3ccccc3c2)N=C1CC1CCCCC1 [Example 8] | 35 | no action | 10 | 100 |  |  |  |  | 
COCC1=NN(C(C)c2ccc(Cl)c(Cl)c2)C(=O)C1=O (stereo not drawn) [Example 3] | 37 | no effect | 20 | 100 | 6 |  |  |  | 

From patent US4659732A, “Lipoxygenase inhibiting 1-arylalkyl-, 1-arylthio-, and 1-aryloxypyrazole-4,5-diones” (Bayer Aktiengesellschaft, priority 1984, dated 1987)
